According to US20020173538A1, “Method for sensitizing cancer cells to cancer therapies with a mevalonate-reducing compound” (priority 2000, published 2002):
Read-outs that look alike come from different tables or passages of the source. Marks after values point to notes of the source that are not given here.

What was measured:
Hep 3B cells = test: MTT cell viability assay, Hep 3B cells (serum-free DMEM)
Text: Human hepatoma cell lines Hep G2 and Hep 3 were chosen as the in vitro models of hepatocytes and hepatoma, respectively.

Hep 3B/T2 cells = test: Tumor growth of Hep 3B/T2 cells in nude mice; type: in vivo, BALB/c-nu/nu nude mice
[1] = MTT cell viability assay, mouse hepatocytes (serum-free RPMI-1640); type: cell-based; details: BALB/c, isolated mouse hepatocytes
[2] = LOV 10 μM 48 hr, then LOV 10 μM without MVA another 24 hr
[3] = LOV 10 μM 48 hr, then LOV 10 μM without MVA another 48 hr
[4] = LOV 10 μM 48 hr, then LOV 10 μM without MVA another 72 hr

Compound: CC[C@H](C)C(=O)O[C@H]1C[C@@H](C)C=C2C=C[C@H](C)[C@H](CC[C@@H]3C[C@@H](O)CC(=O)O3)[C@H]21 [Lovastatin, lovastatin]
- IC50 (Hep 3B cells; Homo sapiens, Hep3B, 48 h, read-out: IC50 (cell viability), 48 hr, Table 3): 62.3 ± 7.1 µM
- IC50 (Hep 3B cells; Homo sapiens, Hep3B, 48 h, read-out: IC50 (cell viability), 48 hr, Table 4): 63.6 µM
- IC50 (Hep 3B cells; Homo sapiens, Hep3B, 48 h, read-out: IC50 of lovastatin (cell viability), 48 hr treatment): 63.6 ± 7.1 µM
- viability at 1 µM (Hep 3B cells; Homo sapiens, Hep3B, 72 h, read-out: Cell viability, lovastatin 1 μM, 72 hr): 84.1 ± 4.5%
- viability at 2 µM (Hep 3B cells; Homo sapiens, Hep3B, 72 h, read-out: Cell viability, lovastatin 2 μM, 72 hr): 71.4 ± 3.8%
- viability at 5 µM (Hep 3B cells; Homo sapiens, Hep3B, 72 h, read-out: Cell viability, lovastatin 5 μM alone, 72 hr, Table 23): 60.7 ± 2.4%
- viability at 5 µM (Hep 3B cells; Homo sapiens, Hep3B, 72 h, read-out: Cell viability, lovastatin 5 μM, 72 hr): 58.8 ± 1.8%
- viability at 10 µM (Hep 3B cells; Homo sapiens, Hep3B, 72 h, read-out: Cell viability, lovastatin 10 μM alone, 72 hr, Table 23): 48.5 ± 2.5%
- viability at 10 µM (Hep 3B cells; Homo sapiens, Hep3B, 72 h, read-out: Cell viability, lovastatin 10 μM, 72 hr): 41.4 ± 1.5%
- viability at 50 µM (Hep 3B cells; Homo sapiens, Hep3B, 72 h, read-out: Cell viability, lovastatin 50 μM, 72 hr): 15.2 ± 1.8%
- IC50 (Hep 3B cells; Homo sapiens, Hep3B, 72 h, read-out: IC50 (cell viability), 72 hr, Table 3): 6.8 ± 1.3 µM
- IC50 (Hep 3B cells; Homo sapiens, Hep3B, 72 h, read-out: IC50 (cell viability), 72 hr, Table 4): 6.8 µM
- IC50 (Hep 3B cells; Homo sapiens, Hep3B, 72 h, read-out: IC50 of lovastatin (cell viability), 72 hr treatment): 6.8 ± 1.3 µM
- viability at 10 µM (Hep 3B cells; Homo sapiens, Hep3B, 96 h, read-out: Cell viability, lovastatin 10 μM alone, 96 hr, Table 10): 29.8 ± 1.2%
- viability at 10 µM (Hep 3B cells; Homo sapiens, Hep3B, 96 h, read-out: Cell viability, lovastatin 10 μM alone, 96 hr, Table 21): 27.5 ± 8.2%
- viability at 10 µM (Hep 3B cells; Homo sapiens, Hep3B, 96 h, read-out: Cell viability, lovastatin 10 μM alone, 96 hr, Table 25): 28.6 ± 1.7%
- IC50 (Hep 3B cells; Homo sapiens, Hep3B, 96 h, read-out: IC50 (cell viability), 96 hr): 5.9 µM
- IC50 (Hep 3B cells; Homo sapiens, Hep3B, 120 h, read-out: IC50 (cell viability), 120 hr): 1.3 µM
- Cell viability (Hep 3B cells; LOV 1 μM, 48 hr): 90.2 ± 0.3^b % of control
- Cell viability (Hep 3B cells; LOV 2 μM, 48 hr): 86.1 ± 2.0^bc % of control
- Cell viability (Hep 3B cells; LOV 5 μM, 48 hr): 78.6 ± 4.7^cd % of control
- Cell viability (Hep 3B cells; LOV 5 μM, 48 hr, Table 4): 78.6 ± 4.7^b % of control
- Cell viability (Hep 3B cells; LOV 5 μM, 96 hr): 56.4 ± 5.1^c % of control
- Cell viability (Hep 3B cells; LOV 5 μM, 120 hr): 20.3 ± 3.6^d % of control
- Cell viability (Hep 3B cells; [2]): 52.6 ± 2.6^b % of control
- Cell viability (cell number) (Hep 3B cells; [2]): 5.3 ± 0.1^b 1 × 10^3 cells
- Cell viability (Hep 3B cells; [3]): 7.3 ± 0.5^b % of control
- Cell viability (cell number) (Hep 3B cells; [3]): 1.0 ± 0.1^b 1 × 10^3 cells
- Cell viability (Hep 3B cells; [4]): 3.2 ± 1.8^b % of control
- Cell viability (cell number) (Hep 3B cells; [4]): 0.6 ± 0.5^b 1 × 10^3 cells
- Cell viability (Hep 3B cells; LOV 10 μM, 48 hr): 66.4 ± 0.8^de % of control
- Cell viability (Hep 3B cells; LOV 10 μM, 48 hr, Table 4): 66.4 ± 0.8^b % of control
- Cell viability (Hep 3B cells; LOV 10 μM, 96 hr): 31.7 ± 2.7^d % of control
- Cell viability (Hep 3B cells; LOV 10 μM, 120 hr): 6.9 ± 1.3^e % of control
- Cell viability (Hep 3B cells; LOV 20 μM, 48 hr): 55.7 ± 6.6^ef % of control
- Cell viability (Hep 3B cells; LOV 50 μM, 48 hr): 52.2 ± 1.9^f % of control
- Cell viability (Hep 3B cells; lovastatin 5 μM 48 hr, then no CAPE 48 hr): 64.3 ± 5.5 % of control
- Cell viability (Hep 3B cells; lovastatin 5 μM 48 hr, then no taxol 48 hr): 49.8 ± 7.8 % of control
- Cell viability (Hep 3B cells; lovastatin 5 μM 72 hr, then no taxol 48 hr): 27.7 ± 2.0 % of control
- Cell viability (Hep 3B cells; lovastatin 5 μM 72 hr, then no taxol 72 hr): 13.0 ± 3.0 % of control
- Cell viability (Hep 3B cells; lovastatin 10 μM 48 hr, then no CAO 48 hr): 47.9 ± 6.1^de % of control
- Cell viability (Hep 3B cells; lovastatin 10 μM 48 hr, then no CAPE 48 hr): 59.3 ± 4.5^d % of control
- Cell viability (Hep 3B cells; lovastatin 10 μM 48 hr, then no GL-M1 48 hr): 53.6 ± 8.2^c % of control
- Cell viability (Hep 3B cells; lovastatin 10 μM 48 hr, then no taxol 48 hr): 45.7 ± 3.1^d % of control
- Cell viability (Hep 3B cells; lovastatin 10 μM 72 hr, then no taxol 48 hr): 20.4 ± 7.0^c % of control
- Cell viability (Hep 3B cells; lovastatin 10 μM 72 hr, then no taxol 72 hr): 14.7 ± 3.6^d % of control
- Cell viability (Hep 3B cells; lovastatin 50 μM 48 hr, then no taxol 48 hr): 2.9 ± 4.1 % of control
- percentage of inhibition of tumor size (Hep 3B/T2 cells; Cycle 1 (Day 42), LOV 37.5 mg/kg/day p.o. days 28-34 and 49-55 and/or taxol 120 μg/kg/2 day i.p. day 36, 38, 40, 57, 59, 61): (−43.6%
- Tumor size (Hep 3B/T2 cells; Day 8, LOV 75 mg/kg/day p.o. days 8-14 and/or taxol 120 μg/kg/day i.p. days 15-19, n = 3): 0.111 cm^3
- Tumor size (Hep 3B/T2 cells; Day 11, LOV 75 mg/kg/day p.o. days 8-14 and/or taxol 120 μg/kg/day i.p. days 15-19, n = 3): 0.048 cm^3
- Tumor size (Hep 3B/T2 cells; Day 17, LOV 75 mg/kg/day p.o. days 8-14 and/or taxol 120 μg/kg/day i.p. days 15-19, n = 3): 0.050 cm^3
- Tumor size (Hep 3B/T2 cells; Day 26, LOV 75 mg/kg/day p.o. days 8-14 and/or taxol 120 μg/kg/day i.p. days 15-19, n = 3): 0.121 cm^3
- Tumor size (Hep 3B/T2 cells; Day 29, LOV 75 mg/kg/day p.o. days 8-14 and/or taxol 120 μg/kg/day i.p. days 15-19, n = 3): 0.154 cm^3
- Tumor size (1 × w^2 × 0.52 cm^3) Day 35 (Hep 3B/T2 cells; Day 35 after inoculation, p.o. lovastatin 37.5 mg/kg/day (days 28-34, 49-55) and/or i.p. taxol 120 μg/kg/2 day (days 36, 38, 40, 57, 59, 61), mean ± SEM): 0.200 cm^3
- Tumor size (1 × w^2 × 0.52 cm^3) Day 38 (Hep 3B/T2 cells; Day 38 after inoculation, p.o. lovastatin 37.5 mg/kg/day (days 28-34, 49-55) and/or i.p. taxol 120 μg/kg/2 day (days 36, 38, 40, 57, 59, 61), mean ± SEM): 0.301 cm^3
- Tumor size (1 × w^2 × 0.52 cm^3) Day 42 (Hep 3B/T2 cells; Day 42 after inoculation, p.o. lovastatin 37.5 mg/kg/day (days 28-34, 49-55) and/or i.p. taxol 120 μg/kg/2 day (days 36, 38, 40, 57, 59, 61), mean ± SEM): 0.533 cm^3
- Tumor size (1 × w^2 × 0.52 cm^3) Day 49 (Hep 3B/T2 cells; Day 49 after inoculation, p.o. lovastatin 37.5 mg/kg/day (days 28-34, 49-55) and/or i.p. taxol 120 μg/kg/2 day (days 36, 38, 40, 57, 59, 61), mean ± SEM): 0.665 cm^3
- Tumor size (1 × w^2 × 0.52 cm^3) Day 56 (Hep 3B/T2 cells; Day 56 after inoculation, p.o. lovastatin 37.5 mg/kg/day (days 28-34, 49-55) and/or i.p. taxol 120 μg/kg/2 day (days 36, 38, 40, 57, 59, 61), mean ± SEM): 0.995 cm^3
- Tumor size (1 × w^2 × 0.52 cm^3) Day 63 (Hep 3B/T2 cells; Day 63 after inoculation, p.o. lovastatin 37.5 mg/kg/day (days 28-34, 49-55) and/or i.p. taxol 120 μg/kg/2 day (days 36, 38, 40, 57, 59, 61), mean ± SEM): 1.263 cm^3
- Tumor size (Hep 3B/T2 cells; end of one cycle of treatment, n=6 (FIG. 41)): 2.24±2.38 cm^3
- viability at 72 h, 1 μM [1]: 91.9 ± 2.7%
- viability at 72 h, 2 μM [1]: 85 ± 4.5%
- viability at 72 h, 5 μM [1]: 84.7 ± 13.3%
- viability at 72 h, 10 μM [1]: 80.4 ± 9.9%
- viability at 72 h, 20 μM [1]: 74.9 ± 5.1%
- viability at 72 h, 50 μM [1]: 39.1 ± 10.6%
